Where two headings read alike, the source gives them in different places.
What was measured:
[1] = process described in the prior art (WO2018/093953); cited from earlier work
[2] = Particle size distribution determination by image analysis (Morphologi G3); format: physicochemical
Text: The term “particle size distribution” (PSD) as used herein refers to the mean particle size from a statistical distribution of a range of particle sizes. The Compound I-HCl form 2 particle size distribution, in particular d90, d50, d10 values, may be determined by well-known methods of the prior art such as sieve analysis, laser diffraction methods, image analysis or optical counting methods.
As used herein, by “d90 particle size” refers to the particle diameter wherein 90 percent of the particle population has a diameter below such value.
As used herein, by “d50 particle size” refers to the median particle diameter, wherein half of the particle population has a diameter below such value.
As used herein, by “d10 particle size” refers to the particle diameter wherein 10 percent of the particle population has a diameter below such value.
The analysis of particle size distribution of each batch was performed by an image analysis method on a Morphologi G3 Automated Particle Characterization System (Malvern PaNanalytical) with a sample Dispersion Unit SDU Glass Plate (180×110 mm); the instrument automatically process the collected data using the software Morphologi ver. 8.20 and provides a cumulative distribution curve and results in terms of d10, d50 and d90.

[3] = made according to Example 13, not milled
[4] = made from Example 13, after milling (hammer mill, Example 14)

d10 particle size [2, 3]: d10 53.5 μm | d50 particle size [2, 3]: d50 133.1 μm | d90 particle size [2, 3]: d90 201.7 μm | d10 particle size [2, 4]: d10 24 μm | d50 particle size [2, 4]: d50 67 μm | d90 particle size [2, 4]: d90 175 μm
SMILES: Cl.O=C(OC(C(F)(F)F)C(F)(F)F)N1CCN(Cc2ccc(C(F)(F)F)cc2N2CCCC2)CC1 [Compound I-HCl form 2, 1,1,1,3,3,3-hexafluoropropan-2-yl 4-(2-(pyrrolidin-1-yl)-4-(trifluoromethyl)benzyl)piperazine-1-carboxylate mono-hydrochloride salt Form 2]
d10 particle size [1]: ≥ 5 µm | d90 particle size [1]: up to 300 μm

Source: patent US11702393B2, “Synthesis of a monoacylglycerol lipase inhibitor” (H. LUNDBECK A/S, priority 2020, dated 2023)
